The values that follow come from PMC8986850, “Development and exploration of novel substituted thiosemicarbazones as inhibitors of aldose reductase via in vitro analysis and computational study” (Scientific Reports, 2022).

The target of data set [1] is T1, human AKR1B1 (hAKR1B1) (Homo sapiens, UniProt P15121).
T1 construct: made in house; host or cells: E. coli BL21 (DE3)
Put plainly: Inhibition of expressed human AKR1B1 (E. coli BL21 (DE3)). In kind it is biochemical. The following applies: human AKR1B1 expressed in E. coli BL21 (DE3), mean ± SEM of three measurements. On the procedure: For the enzyme inhibition assay, ALR2 and ALR1 were extracted from bovine sources (ALR2 from eyes and ALR1 from kidneys). Moreover, inhibitions studies were also carried out on the expressed ALR2 (human AKR1B1) and inhibition data for ALR2- bovine source and expressed enzyme was compared and analyzed. The protocols for enzyme extraction and expression in the bacterial system are included in the section of “Supporting information”. […] For the purpose of comparison and validation of enzyme inhibition data, these compounds were tested against human AKR1B1 (hAKR1B1) expressed in E. coli BL21 (DE3).
For the determination of enzyme activity of ALR1 and ALR2, 100 µL of reaction mixture was composed of 20 µL of buffer (100 mM sodium phosphate, pH 6.2), 30 µL of enzyme extract, 20 µL of substrate (10 mM), 20 µL of cofactor (0.1 mM of NADPH) and 10 µL of test compound (1 mM)[6],[21]. […] Similar protocols were followed for ALR1 and ALR2, however the substrate was different for each enzyme, with sodium-D-glucoronate and DL-glyceraldehyde used as the substrates for the ALR1 and ALR2 assays, respectively. […] In addition, similar protocols were adopted for human AKR1B1 that was expressed in E. coli BL21 (DE3), though the determined protein concentration was 12 µg/mL for the expressed enzyme. Detailed protocols for the preparation of ALR1, ALR2 and expressed human AKR1B1 can be found in the supporting information.
(§1) The newly synthesized N-substitute thiosemicarbazones (3a-o) were dissolved in 100% DMSO and diluted with deionized water, keeping the DMSO concentration equal to 0.1% in the assay.
The expression plasmid for aldose reductase (pDONR223_AKR1B1_WT) was gift from Addgene in stable culture. Streaking of this culture has been carried out on LB Agar plate then incubated overnight, after growth of colonies , inoculation was performed in LB medium then incubated this medium in shaking incubator at 37 °C. After 48 hours turbidity was measured when OD=0.6 then some of bacterial growth was prepared as 50% glycerol stock. Others are subjected to plasmid isolation following method Miniprep. Meanwhile E. Coli BL21 De3 cells were made competent then transformation with extracted plasmid (AKR1B1) had been carried out heat shock method. Transformed cell ( E.Coli BL21 DE3+AKR1B1) were grown in 37 °C in shaking incubator for 48 hr. The selection for transformed cells was carried out with the help of antibiotic (spectinomycin 50µg/ml). […] For the expression of aldose reductase , E.coli BL21DE3 were induced with of IPTG(Isopropyl-d-thiogalactopyranoside)[3]. […] The expressed enzyme was stabilized by addition 10 mM Tris–HCl buffer, 0.5 mM EDTA, 5 mM β-marcaptoethanol at pH 8.0 and 20% (v/v) glycerol. Cells were lysed with lysis buffer and then precipitation with ammonium sulfate up to 80% saturation was done . the expressed enzyme was dialyzed overnight against tris buffer. Protein quantification was performed following Bradford protein assay. Aliqoutes were stored at -80 refrigerator.

Data set [2] is described as follows: DPPH radical scavenging activity. The following applies: 100 µM compound, methanolic DPPH 0.025 mg/mL, 517 nm. On the procedure: DPPH (2,2-diphenyl-1-picrylhydrazyl) was used to explore the free radical quenching ability of 3a-o so as to provide a gauge of their antioxidant potential. The experiment was conducted according to a previously reported protocol with slight modifications. Percent free radical scavenging activities (% FRSA) of 3a-o were determined by spectrophotometric analysis at 517 nm using a homogenous mixture of methanolic DPPH (0.025 mg/mL) and a 100 µM solution of the tested compound, with ascorbic acid used as a positive control (Fig. 3).
In general terms: The DPPH test is a chemical assay of radical scavenging.

Data set [3] deals with T2, ALR2 (Bos taurus, UniProt P16116).
T2 construct: from tissue; host or cells: calf eye lenses
Put plainly: ALR2 enzyme inhibition assay (enzyme extracted from calf lenses). In kind it is biochemical, bovine. As to the method: Compounds 3a-o were tested against ALR2 to evaluate their inhibitory potential against aldose reductase whereas selectivity was determined via performing ALR1 inhibition assay. For the enzyme inhibition assay, ALR2 and ALR1 were extracted from bovine sources (ALR2 from eyes and ALR1 from kidneys). Moreover, inhibitions studies were also carried out on the expressed ALR2 (human AKR1B1) and inhibition data for ALR2- bovine source and expressed enzyme was compared and analyzed. The protocols for enzyme extraction and expression in the bacterial system are included in the section of “Supporting information”. […] For the purpose of comparison and validation of enzyme inhibition data, these compounds were tested against human AKR1B1 (hAKR1B1) expressed in E. coli BL21 (DE3).
For the determination of enzyme activity of ALR1 and ALR2, 100 µL of reaction mixture was composed of 20 µL of buffer (100 mM sodium phosphate, pH 6.2), 30 µL of enzyme extract, 20 µL of substrate (10 mM), 20 µL of cofactor (0.1 mM of NADPH) and 10 µL of test compound (1 mM)[6],[21]. The reaction mixture without cofactor was incubated at 32°C for 10 min, then the enzymatic reaction was initiated with the addition of NADPH and monitored for 5 minutes. Similar protocols were followed for ALR1 and ALR2, however the substrate was different for each enzyme, with sodium-D-glucoronate and DL-glyceraldehyde used as the substrates for the ALR1 and ALR2 assays, respectively. […] In addition, similar protocols were adopted for human AKR1B1 that was expressed in E. coli BL21 (DE3), though the determined protein concentration was 12 µg/mL for the expressed enzyme. Detailed protocols for the preparation of ALR1, ALR2 and expressed human AKR1B1 can be found in the supporting information.
as §1
The extraction of ALR2 was carried out from calf lenses via adopting method described in
in (Hayman and Kinoshita 1965) with little modification. The lenses were obtained from slaughterhouse immediately after calf’s slaughtering and stored at -20^◦C until further use. These lense (150-170g) were subjected to homogenization with about three times volume of cold distilled water and then centrifugation was carried out for the homogenate at 10,000 x g for 14 minutes for removal of insoluble lipids particles. Precipitates were discarded and supernatant layer was subjected to 40% saturation of ammonium sulphate and again centrifugation was performed with same parameters for 14 minutes and again precipitates were discarded. […] In the last step, the supernatant was subjected to 75% of saturation with ammonium sulphate to obtain ALR2. Now, the precipitates were collected instead supernatant because precipitated protein was the expected desired ALR2. The precipitated enzyme (ALR2) was redissolved in 50mM solution of sodium chloride and dialyzed for 24 hours against 50mM solution (3.5L) of NaCl. The volume was recorded before and after dialysis, then dialyzed material was treated with liquid nitrogen. The extracted ALR2 was stored in 1mL Eppendorf tube in deep freezer at -80 ^◦C till further enzymatic studies.

In general, melting point refers to the temperature, or range, at which the solid turns liquid. The IC50 is the concentration that inhibits the measured activity by half. Lower therefore signals greater potency. Consider `CC(C)(C)c1cc(C=NNC(=S)Nc2ccccc2F)c(O)c(C(C)(C)C)c1` [Compound 3m, 2-(3,5-di-tert-butyl-2-hydroxybenzylidene)-N-(2-fluorophenyl)hydrazine carbothioamide], for which the melting point is 180 to 182 °C. In data set [1], this compound registered an IC50 of 1.36 ± 0.004 µM. Also, the “% FRSA (percent free radical scavenging activity)” value in data set [2] came out at 75.95%. Also, the inhibition at 100 µM in data set [3] (bovine lens ALR2, 100 µM inhibitor, read-out: I (%, 100 µM) (ALR2) (converted)) is 85.1%. This compound registered an IC50 in data set [3] (bovine lens ALR2, substrate DL-glyceraldehyde, mean ± SEM of three measurements) of 1.18 ± 0.0034 µM.
